Assay results as given in patent US6420397B1, “Heteroaryl protease inhibitors and diagnostic imaging agents” (3-Dimensional Pharmaceuticals, Inc., priority 1999, dated 2002).

Columns and labels:
Human α-thrombin = target: T1, Human α-thrombin (Homo sapiens, UniProt P00734); test: In vitro inhibition of purified enzymes: thrombin Ki determination (p-nitroanilide substrate hydrolysis); assay type: biochemical; details: substrate N-succinyl-Ala-Ala-Pro-Arg-p-nitroanilide, 37° C., pH 7.5
T1 construct: Purified human α-thrombin was diluted into assay buffer; purchased Enzyme Research Laboratories (South Bend, Indiana)
From the text: (§1) Reagents: All buffer salts were obtained from Sigma Chemical Company (St. Louis, Mo.), and were of the highest purity available. The enzyme substrate N-benzoyl-Ile-Glu-Gly-Arg-p-nitroanilide hydrochloride (Sigma B2291) was obtained from Sigma. N-succinyl-Ala-Ala-Pro-Arg-p-nitroanilide (BACHEM L-1720) was obtained from BACHEM (King of Prussia, Pa.). Human α-thrombin and human factor Xa were obtained from Enzyme Research Laboratories (South Bend, Indiana).
Ki Determinations: All assays are based on the ability of the test compound to inhibit the enzyme catalyzed hydrolysis of a peptide p-nitroanilide substrate. In a typical Ki determination, substrate is prepared in DMSO, and diluted into an assay buffer consisting of 50 mM HEPES, 200 mM NaCl, pH 7.5. The final concentrations for each of the substrates is listed below. In general, substrate concentrations are lower than the experimentally determined value for Km. Test compounds are prepared as a 1.0 mg/ml solution in DMSO. Dilutions are prepared in DMSO yielding 8 final concentrations encompassing a 200 fold concentration range. Enzyme solutions are prepared at the concentrations listed below in assay buffer.
(§2) In a typical Ki determnination, into each well of a 96 well plate is pipetted […] of substrate solution, […] of test compound solution, and the plate allowed to thermally equilibrate at 37° C. in a Molecular Devices plate reader for >15 minutes. Reactions were initiated by the addition of a […] aliquot of enzyme and the absorbance increase at 405 nm is recorded for 15 minutes. Data corresponding to less than 10% of the total substrate hydrolysis were used in the calculations. The ratio of the velocity (rate of change in absorbance as a function of time) for a sample containing no test compound is divided by the velocity of a sample containing test compound, and is plotted as a function of test compound concentration. The data are fit to a linear regression, and the value of the slope of the line calculated. The inverse of the slope is the experimentally determined Ki value.
Thrombin: Thrombin activity was assessed as the ability to hydrolyze the substrate N-succinyl-Ala-Ala-Pro-Arg-p-nitroanilide. Substrate solutions were prepared at a concentration of […] in assay buffer. Final DMSO concentration was 4.3%. Purified human α-thrombin was diluted into assay buffer to a concentration of 15 nM. Final reagent concentrations were: [thrombin]=0.5 nM, [substrate N-succinyl-Ala-Ala-Pro-Arg-p-nitroanilide]=32 mM.

human factor Xa = target: T2, human factor Xa (Homo sapiens, UniProt P00742); test: In vitro inhibition of purified enzymes: Factor Xa (p-nitroanilide substrate hydrolysis); assay type: biochemical; details: read-out: Factor Xa % inhibition @ conc.
T2 construct: purchased Enzyme Research Laboratories (South Bend, Indiana)
From the text: as §1
Ki Determinations: All assays are based on the ability of the test compound to inhibit the enzyme catalyzed hydrolysis of a peptide p-nitroanilide substrate. […] In general, substrate concentrations are lower than the experimentally determined value for Km. […]
as §2, with “Data corresponding to less than 10% of the total substrate hydrolysis were used in the calculations.” left out, “The data are fit to a linear regression, and the value of the slope of the line calculated. The inverse of the slope is the experimentally determined Ki value.” left out

T2 sequence (P00742 235-488 limits assumed): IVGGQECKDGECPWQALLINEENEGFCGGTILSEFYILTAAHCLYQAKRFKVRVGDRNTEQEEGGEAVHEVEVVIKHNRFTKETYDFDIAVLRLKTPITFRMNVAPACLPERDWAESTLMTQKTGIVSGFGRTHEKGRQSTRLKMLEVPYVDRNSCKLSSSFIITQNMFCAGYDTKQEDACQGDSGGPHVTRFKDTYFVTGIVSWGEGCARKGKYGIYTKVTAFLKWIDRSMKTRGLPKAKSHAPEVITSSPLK
T2 sequence (P00742 41-179 limits assumed): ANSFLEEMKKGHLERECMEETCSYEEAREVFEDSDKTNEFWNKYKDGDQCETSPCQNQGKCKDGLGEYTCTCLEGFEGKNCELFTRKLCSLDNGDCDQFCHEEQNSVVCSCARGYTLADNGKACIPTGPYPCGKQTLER

| Ki (Human α-thrombin) [nM] | inhibition at 20 µM (human factor Xa; @ 20 μM) [%] | inhibition at 13 µM (human factor Xa; @ 13 μM) [%] | Structure (SMILES) |
| --- | --- | --- | --- |
| 14 | 16 | – | Cc1ccc(NS(=O)(=O)Cc2ccccc2I)c(=O)n1CC(=O)N[C@@H](CCONC(=N)N)C(=O)c1nccs1 [Example 1, N-{(1S)-1-[2-(Amidinoaminooxy)ethyl]-2-oxo-2-(1,3-thiazol-2-yl)ethyl}-2-[3-({[(2-iodophenyl)methyl]sulfonyl}amino)-6-methyl-2-oxohydropyridyl]acetamide] |
| 75 | – | 51 | Cc1ccc(NS(=O)(=O)Cc2ccccc2I)c(=O)n1CC(=O)N[C@@H](CCONC(=N)N)C(=O)c1nc2ccccc2s1 [Example 2, N-{(1S)-1-[2-(Amidinoaminooxy)ethyl]-2-benzothiazol-2-yl-2-oxoethyl}-2-[3-({[(2-iodophenyl)methyl]sulfonyl}amino)-6-methyl-2-oxohydropyridyl]acetamide] |
| 45 | – | – | Cc1ccc(NS(=O)(=O)c2cccc(I)c2)c(=O)n1CC(=O)N[C@@H](CCONC(=N)N)C(=O)c1nccs1 [Example 3, N-{(1S)-1-[2-(Amidinoaminooxy)ethyl]-2-oxo-2-(1,3-thiazol-2-yl)ethyl}-2-(3-{[(3-iodophettyl)sulfonyl]amino}-6-methyl-2-oxohydropyridyl)acetamide] |
| 17 | – | – | Cc1ccc(NS(=O)(=O)c2cccc(I)c2)c(=O)n1CC(=O)N[C@@H](CCONC(=N)N)C(=O)c1nc2ccccc2s1 [Example 4, N-{(1S)-1-[2-(Amidinoaminooxy)ethyl]-2-benzothiazol-2-yl-2-oxoethyl}-2-(3-{[(3-iodopheityl)sulfonyl]amino}-6-methyl-2-oxohydropyridyl)acetamide] |
